Results: patent US20150133434A1, “Compositions and Methods for Reactivating Latent Immunodeficiency Virus” (priority 2012, published 2015)

Key:
[1] = system: HIV LTR-GFP in J-Lat A72 cells; assay: JQ1 response in A72 cells after shRNA knockdown (cyclin T1, BRD2, BRD4), flow cytometry of GFP; format: cell-based
Experimental: ShRNA-expressing lentiviral vectors were purchased from Open Biosystems. The plasmids TRCN0000006308 and TRCN0000006310 were used to deplete BRD2, plasmids TRCN0000021424 and TRCN0000021428 were used to deplete BRD4, and plasmids TRCN0000013673 and TRCN0000013675 were used to deplete cyclin T1. The pLKO.1 vector containing scramble shRNA was used as control. […]. J-Lat A72 cells (containing a LTR-GFP construct) were spininfected with virus (1 ng of p24 per 10^6 cells) containing shRNAs against BRD2, BRD4, cyclin T1 or nontargeting control shRNAs and were selected with puromycin (2 μg/ml; Sigma) (Naldini L, et al., Science 1996; 272:263-7). After 4 days of selection, cells were treated with the indicated concentration of drugs. The percentage of GFP^+ cells was determined after 18 h using a MACSQuant VYB FACS analyzer (Miltenyi Biotech GmbH). Cell viability was monitored by forward and side scatter analysis. Analysis was conducted on 3×10,000 live cells per condition, and all experiments were independently repeated at least three times. Data were analyzed using FlowJo 9.4 (Tree Star).
As transcription elongation at the HIV promoter uniquely depends on P-TEFb, whether the JQ1 effect in latent cells requires intact P-TEFb was determined. Short hairpin RNAs (shRNAs) directed against cyclin T1, an important component of P-TEFb, were introduced into A72 cells with lentiviral vectors. Knockdown of cyclin T1 yielded lower basal levels in GFP^+ cells than control cells expressing nontargeting shRNAs (FIG. 25A).
To test the functional relevance of BET proteins in HIV latency, lentiviral shRNA knockdown studies of endogenous BRD2 and BRD4 proteins were performed in A72 cells lacking Tat. BRD2 is a close relative of BRD4, but lacks a C-terminal PID domain. […] BRD2 binds JQ1 and other BET inhibitors, albeit with lower binding affinities than BRD4.
(A) A72 cells were infected with virus containing shRNA constructs targeting cyclin T1 or a nontargeting control. Knockdown of cyclin T1 protein levels are shown by immunoblotting with cyclin T1 or the control α-tubulin antibody. At 4 days after infection, cells were treated with JQ1 or DMSO at the indicated concentrations for 18 h and analyzed by flow cytometry. […] Average (±SD) of three experiments is shown. (B) A72 cells were infected with virus containing shRNA constructs targeting BRD2, BRD4 or a nontargeting control. At 4 days after infection, cells were treated with JQ1 or DMSO at the indicated concentrations for 18 h and examined by flow cytometry. […] Results represent average (±SD) of three experiments. Knockdown of BRD2 and BRD4 protein levels were confirmed by immunoblotting with BRD2 and BRD4 antibodies or the control α-tubulin. All treatments in (A) and (B) on the X axis are in μM.

[2] = system: latent HIV (clone R7/E-/GFP) in Jurkat T cells; assay: Reactivation of latent HIV in polyclonal Jurkat T cells (clone R7/E-/GFP), flow cytometry of GFP; format: cell-based, HIV-1
Experimental: A polyclonal population of Jurkat T cells containing latent HIV (clone R7/E-/GFP) was treated with increasing amounts of JQ1. This viral clone contains a frameshift mutation in the viral Env gene to prevent viral spread and expresses GFP in the Nef open reading frame, which allows separation of actively infected GFP^+ from GFP^− cells by cell sorting. GFP^− cells, which are mostly uninfected but contain a small fraction of latently infected cells with silenced HIV transcription, were treated with JQ1. Activation of transcription was measured by flow cytometry of GFP. […] Stimulation of cells with JQ1 produced up to fivefold more GFP-expressing cells than control-treated cells.
HIV clones R7/E-/GFP and NL4-3/E-/GFP-IRES-nef were derived from pR7-GFP and pNLENG1-EGFP by mutating the Env gene by inserting an early stop codon in the NdeI site. […]. Jurkat cells were spininfected with 25 ng of p24 per 10^6 cells, and GFP^− cells where collected in two rounds of cell sorting 5 and 15 days after infection. The expanded population of GFP^− cells, composed of uninfected and latently infected cells, was seeded in 96-well plates and treated with the indicated concentration of drugs in duplicates. The percentage of GFP^+ cells was detected after 24 h at the MACSQuant VYB FACS analyzer. Data are expressed as the mean percentage of GFP^+ cells, subtracting the average percentage of spontaneous GFP-reactivation in the untreated samples. (A) Jurkat cells containing latent R7/E-/GFP virus were treated with JQ1 or (R)-JQ1 in combination with Prostratin (0.5 μM), SAHA (2.5 μM), TNFα (1 ng/μl), or control at the indicated concentrations for 18 h, followed by flow cytometry analysis. […] Results represent average of two independent experiments. All treatments in (A) and (B) on the X axis are in μM.

With Cc1sc2c(c1C)C(c1ccc(Cl)cc1)=N[C@@H](CC(=O)OC(C)(C)C)c1nnc(C)n1-2 [JQ1, tert-Butyl 2-((6S)-4-(4-chlorophenyl)-2,3,9-trimethyl-6H-thieno[3,2-f][1,2,4]triazolo[4,3-a][1,4]diazepin-6-yl)acetate] the “activation of the HIV LTR in response to JQ1” value ([1]; BRD2 knockdown cells) was “twofold”, the “response to JQ1” value ([1]; BRD4 knockdown cells) was “not affected” and the “activation of the HIV LTR in response to JQ1” value ([1]; control cells (nontargeting shRNA)) was 3.3 fold. For the same compound, the “cells responding with GFP expression to JQ1, relative to control cells” value ([1]; cyclin T1 knockdown cells) was “half as many cells responded”, the “GFP-expressing cells relative to control-treated cells” value ([2]; JQ1 alone) was “up to fivefold” and the “effect of adding JQ1 with SAHA” value ([2]; co-treatment with SAHA 2.5 μM, FIG. 20A, B (both viral clones)) was “no additive or synergistic effects”. The “effect of co-treatment with TNFα on the JQ1 effect” value ([2]; co-treatment with TNFα, FIG. 20A, B (both viral clones)) was “very modest enhancement”, the “effect of adding JQ1 with prostratin” value ([2]; co-treatment with prostratin 0.5 μM, FIG. 20A, B (both viral clones)) was “Enhanced activation” and the “reactivation of HIV-1 (GFP+ cells)” value ([2]; compound alone, increasing amounts) was “reactivated HIV-1 in a dose-dependent manner”.
